Consider two compounds from PMC5458547, “Discovery of first-in-class reversible dual small molecule inhibitors against G9a and DNMTs in hematological malignancies” (Nature Communications, 2017).

SMILES strings stand for the structures.

Data set [1] has as its target T1, GLP (Homo sapiens, UniProt Q9H9B1).
T1 construct: purchased BPS Bioscience (contract panel)
T1 sequence (Q9H9B1 1-1298): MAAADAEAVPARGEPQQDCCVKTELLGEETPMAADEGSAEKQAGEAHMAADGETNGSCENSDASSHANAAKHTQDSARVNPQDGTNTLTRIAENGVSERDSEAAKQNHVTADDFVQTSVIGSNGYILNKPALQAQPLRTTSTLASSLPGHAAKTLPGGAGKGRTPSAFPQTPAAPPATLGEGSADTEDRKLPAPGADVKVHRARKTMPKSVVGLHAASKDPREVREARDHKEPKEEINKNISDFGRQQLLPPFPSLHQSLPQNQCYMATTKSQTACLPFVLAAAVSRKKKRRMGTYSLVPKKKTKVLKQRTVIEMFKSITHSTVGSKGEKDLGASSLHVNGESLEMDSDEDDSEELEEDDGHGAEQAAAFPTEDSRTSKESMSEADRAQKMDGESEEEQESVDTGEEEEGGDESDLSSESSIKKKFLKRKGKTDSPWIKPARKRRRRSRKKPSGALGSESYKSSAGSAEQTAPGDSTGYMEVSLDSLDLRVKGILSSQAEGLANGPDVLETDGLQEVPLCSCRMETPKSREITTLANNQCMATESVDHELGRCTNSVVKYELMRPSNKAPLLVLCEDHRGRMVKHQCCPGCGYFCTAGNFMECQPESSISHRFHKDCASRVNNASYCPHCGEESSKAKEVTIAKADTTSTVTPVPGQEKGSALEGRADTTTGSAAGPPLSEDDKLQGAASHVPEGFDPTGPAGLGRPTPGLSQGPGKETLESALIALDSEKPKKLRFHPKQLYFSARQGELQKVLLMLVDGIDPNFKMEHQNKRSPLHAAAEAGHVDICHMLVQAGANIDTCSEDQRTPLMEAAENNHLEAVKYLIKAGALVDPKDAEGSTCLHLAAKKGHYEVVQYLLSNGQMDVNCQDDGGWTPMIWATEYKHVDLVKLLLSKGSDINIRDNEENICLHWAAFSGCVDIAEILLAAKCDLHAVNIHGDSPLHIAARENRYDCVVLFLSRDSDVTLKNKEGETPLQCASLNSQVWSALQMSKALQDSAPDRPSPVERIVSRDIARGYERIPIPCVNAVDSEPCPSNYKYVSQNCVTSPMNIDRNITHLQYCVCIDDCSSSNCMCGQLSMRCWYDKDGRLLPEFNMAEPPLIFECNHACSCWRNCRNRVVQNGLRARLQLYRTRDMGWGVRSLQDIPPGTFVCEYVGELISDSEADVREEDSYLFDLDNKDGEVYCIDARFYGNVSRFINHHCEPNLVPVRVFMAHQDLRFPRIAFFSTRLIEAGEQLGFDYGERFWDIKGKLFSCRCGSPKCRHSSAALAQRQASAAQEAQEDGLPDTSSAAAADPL
Put plainly: Radioligand binding assay (3H-SAM), Reaction Biology. The class given is biochemical. As to the method: The radioligand binding assay against G9a, DNMT1 and GLP was performed by Reaction Biology Corporation (http://www.reactionbiology.com).

In data set [2] the test system is PC3. Kind of data set: Cell proliferation assay (MTS). In kind it is cell-based. Conditions: Homo sapiens, PC-3; Prostate.
In data set [3] the target is T2, BRD2(BD1+BD2) (Homo sapiens, UniProt P25440).
T2 construct: purchased DiscoverX KINOMEscan (kinases); BPS Bioscience (epigenetic targets)
T2 sequence (P25440 65-459 limits assumed): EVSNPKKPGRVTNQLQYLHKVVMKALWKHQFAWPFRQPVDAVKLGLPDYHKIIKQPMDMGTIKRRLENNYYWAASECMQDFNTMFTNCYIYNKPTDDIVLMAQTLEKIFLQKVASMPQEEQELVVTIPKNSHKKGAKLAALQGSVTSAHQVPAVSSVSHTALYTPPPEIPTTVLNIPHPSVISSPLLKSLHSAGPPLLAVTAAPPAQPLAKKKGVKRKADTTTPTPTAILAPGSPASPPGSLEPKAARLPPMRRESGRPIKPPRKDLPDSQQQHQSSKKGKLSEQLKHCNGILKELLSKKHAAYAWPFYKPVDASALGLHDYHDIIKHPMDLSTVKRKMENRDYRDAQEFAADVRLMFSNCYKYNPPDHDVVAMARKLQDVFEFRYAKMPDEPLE
Kind of data set: Epigenetics selectivity panel (BPS Bioscience). In kind it is binding.

In data set [4] the test system is N417. Kind of data set: Cell proliferation assay (MTS). In kind it is cell-based. Particulars: Homo sapiens, SCLC.
For data set [5], the system named is SK-MEL-28. Put plainly: Cell proliferation assay (MTS). Conditions: Homo sapiens, Melanoma. The class given is cell-based.
Data set [6] concerns 697. Put plainly: Cell proliferation assay (MTS). In kind it is cell-based. Particulars: Homo sapiens; ALL, 48 h.
Data set [7] relates to WM-35. Kind of data set: Cell proliferation assay (MTS). Particulars: Homo sapiens, WM35; Melanoma. In kind it is cell-based.
For data set [8], the target named is T3, MLL-WARD (Homo sapiens, UniProt Q03164).
T3 construct: purchased DiscoverX KINOMEscan (kinases); BPS Bioscience (epigenetic targets)
Put plainly: Epigenetics selectivity panel (BPS Bioscience). In kind it is biochemical.

The nature of data set [9]: in vitro. The class given is cell-based. Particulars: human. As to the method:
Cell viability was determined by measuring the concentration of cellular adenosine triphosphate (ATP) using the ATP1Step Kit as described by the manufacturer (Perkin-Elmer). PBMCs were isolated following the regular density gradient centrifugation procedure with Ficoll. Details are provided in Supplementary Information. […]
each test plate followed by incubation for 10 min at room temperature on an orbital shaker. ATP concentration was determined by reading chemical luminescence using the Envision plate reader (PerkinElmer). The percentage of viable cells relative to the non-drug treated controls was determined for […]
Cells were plated in 96-well black microplates at 100,000 cells/well density with DMEM medium (containing 10% FBS and antibiotics) and were incubated at 37 °C (5% CO2, 95% humidity) for 24 h. […] Following this 72 h exposure to test compounds, cell viability in each well was determined by measuring the concentration of cellular adenosine triphosphate (ATP) using the ATP1Step Kit as described by the manufacturer (Perkin-Elmer). […] ATP concentration was determined by reading chemical luminescence using the Envision plate reader (PerkinElmer). […]
sampler temperature was set at 7 °C and column temperature at 50 °C. For detection and quantification, the electrospray ionization operated in the positive mode, and the collision gas used was ultra-pure argon at a flow rate of 0.15 mL min−1. […]

In the case of `COc1cc2c(NC3CCN(C)CC3)cc(-c3ccc(C)o3)nc2cc1OCCCN1CCCC1` [CM-272, 6-methoxy-2-(5-methyl-2-furyl)-N-(1-methyl-4-piperidyl)-7-(3-pyrrolidin-1-ylpropoxy)quinolin-4-amine], in data set [1], the half-maximal inhibitory concentration (IC50) (in general, the concentration that gives 50% inhibition) was 0.007 µM. Besides, the concentration for 50% growth inhibition (GI50) (as a rule, the concentration that inhibits growth by half) in [2] came to 0.59 µM; in data set [4], 1.32 µM; in data set [5], 0.874 µM; in data set [6] it was 0.913 µM; in [7], 0.854 µM. The inhibition – broadly, the relative decrease from the control value, in per cent – at 10 µM in [3] was found to be 0%; in data set [8], 4%. In [9], the CC50 (commonly the concentration that lowers cell viability or growth by half) at 72 h is 1.9 µM.

As for `COc1cc2c(NCC3CCN(C)CC3)cc(-c3ccc(C)o3)nc2cc1OCCCN1CCCC1` [CM-579, 6-methoxy-2-(5-methyl-2-furyl)-N-[(1-methyl-4-piperidyl)methyl]-7-(3-pyrrolidin-1-ylpropoxy)quinolin-4-amine], the half-maximal inhibitory concentration (IC50) in data set [1] is 0.067 µM. Further, the 50% growth inhibitory concentration (GI50) in data set [2] was 0.307 µM; in data set [4], 0.409 µM; in data set [5], 1.39 µM; in [6] it was 4.29 µM; in data set [7], 0.168 µM. Moreover, the inhibition at 10 µM came out at 0% in data set [3] and 2% in [8]. The CC50 at 72 h in data set [9] was 7.39 µM.
